Data on 2 compounds can be found in patent publication EP4810489A1, “SUBSTITUTED 2-(PYRROLIDIN-3-YL)ACETIC ACID DERIVATIVE, PREPARATION METHOD THEREFOR AND USE THEREOF” (Innovstone Therapeutics Limited, priority 2023, dated 2025).

For one series, the target named is T1, Lp(a) assembly (Homo sapiens, UniProt P08519).
T1 construct: expressed in transfected cells; host or cells: HepG2 cells overexpressing apo(a)
The experiment in a line: ELISA assay on screening Lp(a) assembly inhibition. It counts as cell-based. To be noted: HepG2 cells overexpressing ApoA protein, 24h incubation, ELISA of culture supernatant. As to the method:
Test Example 1 and Methods of ELISA Assay on Screening Lp(a) Assembly Inhibition
1. Reagents, Consumables, Instruments
2. Cell Culture Media Preparation 2.1. Complete Cell Culture Media
3. Test Procedure • 3.1 Cell Culture and Passage • 1) Preheated the culture media, DPBS, and pancreatin in a 37°C water bath in advance. • 2) Digested cells with pancreatin, transferred the cell suspension to a 15 mL centrifuge tube, and centrifuged at 1000 rpm for 5 min. • 3) Resuspended the cells with culture media and transferred the cell suspension to a new T75 cell culture flask. • 4) Cultured at 37°C in a 5% CO2 incubator. • 3.2. Cell Seeding and Drug Administration • 1) Seeded HepG2 cells overexpressing of ApoA protein into a 96-well plate at 100 µL per well and incubated overnight for attachment. • 2) Replaced with fresh culture media the next day, then added diluted compounds, and cultured the cell plate in a 5% CO2, 37°C incubator for 24h. • 3.3. Preparation of Cell Culture Supernatant • 1) Added 10 µL of 1.5 M EACA to each well. • 2) Centrifuged at 1000 rpm for 1 min, and transferred 100 µL of cell culture supernatant to a pre-coated ELISA plate. • 3.4. […]

Series [1] in a line: Safety assessment test in rats. It counts as in vivo, SD rats. To be noted: oral gavage, 300 mg/kg and 1000 mg/kg once daily for 14 consecutive days. As for the experimental part:
Test Example 5 and Safety Assessment Test in Rats
The safety of the compounds of the present invention was evaluated by oral gavage administration to SD rats as the test animals.
Test method: 50 SD rats (half males and half females) were randomly divided into vehicle control group and test article group according to their body weight. The vehicle saline or the compound of the present invention or LY3473329 (300 mg/kg, 1000 mg/kg) was administered orally once daily for 14 consecutive days.

The subject of the next series is Lp(a). In words: Humanized mouse Lp(a) inhibition test. It counts as in vivo, humanized Lp(a) transgenic mouse. Conditions: oral, 5 mg/kg once daily for 3 consecutive days, blood 8 h after last dose. As for the experimental part: Test Example 3 and Humanized Mouse Lp(a) Inhibition Test
The in vivo pharmacodynamics of the compounds in reducing Lp(a) was evaluated in a humanized Lp(a) transgenic mouse model.Lp(a) mice were obtained by crossing mice expressing humanized apoB-100 with mice expressing humanized apo(a) containing 16 Kringle repeats.Female mice aged 8-9 weeks were selected for the test.Housing conditions: standard light cycle (12 h light/12 h dark), temperature 20-25°C, humidity 40-70%, free access to water and normal diet.
One day before the test, mice were divided into vehicle control group and test article group (n=5/group) according to body weight and baseline plasma Lp(a) concentration. […] Eight hours after the last dose, 10 µL of blood was collected from the tail vein and transferred to a 1.5 mL centrifuge tube containing 90 µL of normal saline, mixed well, and left to stand on ice for 30min.The above samples were centrifuged at 4°C, 3000 rpm for 10 min, and the supernatant was collected and placed on ice.The Lp(a) concentration in the supernatant was measured by double-antibody sandwich ELISA using an anti-apo(a) capture antibody and an HRP-conjugated anti-ApoB detection antibody, with TMB for color development. The reaction was stopped with 1 N sulfuric acid, and the OD value was read at 450 nm on a Tecan microplate reader.Inhibition rate was calculated for each dosing group. […]

T1 sequence (P08519 20-2040): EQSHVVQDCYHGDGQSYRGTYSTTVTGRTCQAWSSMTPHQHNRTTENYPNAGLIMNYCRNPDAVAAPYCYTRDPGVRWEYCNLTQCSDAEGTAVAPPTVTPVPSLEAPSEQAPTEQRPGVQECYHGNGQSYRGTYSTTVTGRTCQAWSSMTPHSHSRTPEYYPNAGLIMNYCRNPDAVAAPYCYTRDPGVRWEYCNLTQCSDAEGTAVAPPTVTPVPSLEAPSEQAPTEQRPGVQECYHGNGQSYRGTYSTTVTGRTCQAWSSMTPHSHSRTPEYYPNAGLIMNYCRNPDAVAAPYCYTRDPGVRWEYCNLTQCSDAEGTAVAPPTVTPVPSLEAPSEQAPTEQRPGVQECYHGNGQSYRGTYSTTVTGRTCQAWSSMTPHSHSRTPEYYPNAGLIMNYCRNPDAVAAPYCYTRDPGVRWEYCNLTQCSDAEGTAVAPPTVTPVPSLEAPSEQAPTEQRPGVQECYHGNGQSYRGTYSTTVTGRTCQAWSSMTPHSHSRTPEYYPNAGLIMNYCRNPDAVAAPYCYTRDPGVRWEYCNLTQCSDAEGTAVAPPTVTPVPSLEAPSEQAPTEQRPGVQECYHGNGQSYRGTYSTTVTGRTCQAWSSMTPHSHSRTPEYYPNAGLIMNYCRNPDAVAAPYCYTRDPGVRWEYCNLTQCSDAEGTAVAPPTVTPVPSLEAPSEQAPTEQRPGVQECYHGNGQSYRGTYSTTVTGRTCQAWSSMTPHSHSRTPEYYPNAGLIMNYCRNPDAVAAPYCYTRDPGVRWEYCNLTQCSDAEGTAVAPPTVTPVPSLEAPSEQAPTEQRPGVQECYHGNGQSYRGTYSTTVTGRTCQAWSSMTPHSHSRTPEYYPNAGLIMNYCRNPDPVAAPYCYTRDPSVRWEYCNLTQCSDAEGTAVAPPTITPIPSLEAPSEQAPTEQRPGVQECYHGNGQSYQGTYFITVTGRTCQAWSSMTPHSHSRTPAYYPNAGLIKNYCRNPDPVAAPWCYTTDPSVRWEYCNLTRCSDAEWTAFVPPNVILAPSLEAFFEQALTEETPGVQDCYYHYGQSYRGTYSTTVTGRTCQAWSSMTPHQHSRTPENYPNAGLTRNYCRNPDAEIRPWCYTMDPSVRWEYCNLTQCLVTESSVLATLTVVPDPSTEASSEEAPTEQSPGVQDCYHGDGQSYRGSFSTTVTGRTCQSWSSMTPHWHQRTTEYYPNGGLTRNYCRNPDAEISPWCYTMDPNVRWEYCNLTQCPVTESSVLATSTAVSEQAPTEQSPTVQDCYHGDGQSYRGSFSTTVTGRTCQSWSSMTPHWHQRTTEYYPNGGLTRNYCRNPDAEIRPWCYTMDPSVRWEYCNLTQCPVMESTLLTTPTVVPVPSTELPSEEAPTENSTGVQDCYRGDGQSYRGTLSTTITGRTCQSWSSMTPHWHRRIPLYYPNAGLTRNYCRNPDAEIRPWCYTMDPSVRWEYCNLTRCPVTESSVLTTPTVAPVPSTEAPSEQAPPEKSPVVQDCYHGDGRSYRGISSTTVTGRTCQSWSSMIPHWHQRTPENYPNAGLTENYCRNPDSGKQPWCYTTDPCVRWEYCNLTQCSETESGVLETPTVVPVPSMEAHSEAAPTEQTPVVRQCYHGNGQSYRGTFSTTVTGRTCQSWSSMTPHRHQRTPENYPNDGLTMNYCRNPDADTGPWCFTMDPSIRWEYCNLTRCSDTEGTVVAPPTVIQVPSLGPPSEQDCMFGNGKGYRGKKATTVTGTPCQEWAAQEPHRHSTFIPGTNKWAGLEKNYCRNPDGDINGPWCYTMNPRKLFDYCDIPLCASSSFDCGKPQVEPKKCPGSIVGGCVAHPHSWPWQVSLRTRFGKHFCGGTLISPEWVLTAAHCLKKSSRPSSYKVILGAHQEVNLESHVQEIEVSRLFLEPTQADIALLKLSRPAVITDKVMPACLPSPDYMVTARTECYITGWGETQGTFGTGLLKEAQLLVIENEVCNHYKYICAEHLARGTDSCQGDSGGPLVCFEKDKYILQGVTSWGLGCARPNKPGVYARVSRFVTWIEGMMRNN

One may read the IC50 as the concentration at which inhibition is half-maximal. The low end stands for greater potency in that assay, the high end for weaker potency in that assay. In turn, `O=C(O)[C@@H](Cc1ccc2c(CN(Cc3n[nH]c4cc(C[C@H](C(=O)O)[C@H]5CCNC5)ccc34)Cc3n[nH]c4cc(C[C@H](C(=O)O)[C@H]5CCNC5)ccc34)n[nH]c2c1)[C@H]1CCNC1` [Compound 136] came in with a half-inhibitory concentration (IC50) at Lp(a) assembly of 2.16 nM.

As to `O=C(O)[C@@H](Cc1cccc(CN(Cc2cccc(C[C@H](C(=O)O)[C@H]3CCNC3)c2)Cc2cccc(C[C@H](C(=O)O)[C@H]3CCNC3)c2)c1)[C@H]1CCNC1` [LY3473329], in series [1], the “changes in clinical observation, body weight and weight gain, food consumption, hematology, blood biochemistry, urine, organ weight and coefficients, and histopathology” value is reported as “no changes”. For the same compound, the “Lp(a) Inhibition Rate” value in the series with Lp(a) is 56%. In addition, the IC50 on Lp(a) assembly stood at 1.05 nM.
